{"source": "patent US20060234292A1", "about": "“Methods of diagnosing and treating diabetes and insulin resistance” (priority 2002, published 2006)", "type_in_all_cases": "in vivo, human", "key": {"MAST205b expression": {"system": "MAST205b expression", "assay": "Real-time PCR (Taqman) specific for MAST205b in muscle before/after 3 months troglitazone", "method": "(§1) The gene expression changes observed in the human muscle samples derived from the various comparison populations analyzed in the profiling analysis described above were further confirmed by the use of real-time quantitative PCR. A combination of specific PCR primers and a Taqman probe were designed to detect and quantify expression levels for each gene. Relative gene expression levels were determined in this manner in each patient and the mean expression levels in the comparison populations were then calculated. […] PCR primers and Taqman Probe were designed to detect specifically the expression of MAST205b. The sequences of the primers was as follows: […]"}, "[1]": {"system": "Protein C inhibitor (PCI) transcripts", "assay": "Gene expression profiling (Affymetrix chips) of muscle from diabetics before/after 3 months troglitazone: PCI", "settings": "basal muscle sample", "from_the_text": "The molecular mechanism by which thiazolidinediones (TZDs) cause an increase in peripheral insulin sensitivity was studied. Genes in muscle or fat whose expression is altered by TZDs may lie on a pathway leading from TZD treatment to increased insulin sensitivity. Modulators of such genes can elicit the same effect as TZD treatment. Moreover, such modulators can lack some of the side effects of TZD. The majority of glucose disposal occurs in muscle. For this reason, gene expression profiling in human muscle from diabetics treated with troglitazone was used to identify genes important for TZD action and therefore treatment of diabetes and insulin resistance. Gene expression profiling was performed on tissue samples (muscle) obtained from lean obese and diabetic individuals. […] Gene expression profile differences were calculated as follows. […] The raw data was analyzed by a statistical test to remove ‘outliers’. The mean ‘average difference score’ was then calculated from the average difference scores for all individuals in a particular treatment group. Genes were determined to be changed in three different comparisons by calculating the Students t test statistic between two conditions and selecting those with t less than or equal to 0.05. Fold change was determined as the ratio of mean average difference score in condition 2 to the mean average difference score in condition 1. […]"}, "[2]": {"system": "MAST205/MAST205b transcripts", "assay": "Gene expression profiling (Affymetrix chips) of muscle from diabetics before/after 3 months troglitazone: MAST205/MAST205b", "settings": "basal muscle sample", "method": "Gene expression profiling was performed on tissue samples (muscle) obtained from lean obese and diabetic individuals. Two studies were performed. In the first study, basal samples were isolated from all individuals at the beginning of a 5 hour hyperinsulinemic euglycemic clamp. Clamp samples were isolated at the end of this procedure. Similar basal and clamp samples were taken 3 months later after all patients had taken the insulin sensitizing drug troglitazone (tro). Gene expression profile differences were calculated as follows. The expression level of a particular gene is indicated by its ‘average difference score’. The raw data was analyzed by a statistical test to remove ‘outliers’. The mean ‘average difference score’ was then calculated from the average difference scores for all individuals in a particular treatment group. Genes were determined to be changed in three different comparisons by calculating the Students t test statistic between two conditions and selecting those with t less than or equal to 0.05. Fold change was determined as the ratio of mean average difference score in condition 2 to the mean average difference score in condition 1. The first comparison is basal leans (condition 1) versus basal obese (condition 2). The second comparison is basal leans (condition 1) versus basal diabetics (condition). […]"}, "MAST205 expression": {"system": "MAST205 expression", "assay": "Real-time PCR (Taqman) specific for MAST205 in muscle before/after 3 months troglitazone", "method": "as §1, with “MAST205.” for “MAST205b.”"}, "[3]": {"system": "Protein C inhibitor (PCI) expression", "assay": "Real time PCR of PCI expression in muscle, pre- vs post-troglitazone-treated patients", "settings": "mean diabetic post-Tro/mean diabetic pre-Tro expression", "method": "The gene expression changes observed in the human muscle samples derived from the various comparison populations analyzed in the profiling analysis described above were further confirmed by the use of real-time quantitative PCR. A combination of specific PCR primers and a Taqman probe were designed to detect and quantify expression levels for each gene. Relative gene expression levels were determined in this manner in each patient and the mean expression levels in the comparison populations were then calculated. PCI expression was also evaluated by real time PCR in lean vs. obese individuals and in pre-troglitazone-treated vs post-troglitazone-treated patients."}, "[4]": {"settings": "muscle, lean individuals after 3 months troglitazone, relative to Lean Pre-Trog = 100%"}, "[5]": {"settings": "ratio of relative expression Diabetic Post-Trog to Diabetic Pre-Trog"}, "[6]": {"settings": "3 months troglitazone, gene profiling"}}, "data": [{"smiles": "Cc1c(C)c2c(c(C)c1O)CCC(C)(COc1ccc(CC3SC(=O)NC3=O)cc1)O2", "note": "(centres unmarked) [troglitazone]", "values": [{"measurement": "Relative Exp (%), Diabetic Post-Tro (MAST205b)", "setting": "MAST205b expression; muscle, diabetics after 3 months troglitazone, relative to Lean Pre-Trog = 100%, Diabetic Pre-Trog 197", "value": 111, "unit": "%"}, {"measurement": "Relative Exp (%), Lean Post-Trog (MAST205b)", "setting": "MAST205b expression; [4]", "value": 88, "unit": "%"}, {"measurement": "Fold Change (D+/D−) (MAST205b)", "setting": "MAST205b expression; [5]", "value": 0.56}, {"measurement": "Fold Change (diabetic post tro/diabetic pre tro), Protein C inhibitor", "setting": "[1]; [6]", "value": 0.51}, {"measurement": "Mean Expr, Diabetic Post-Trog (Protein C inhibitor)", "setting": "[1]; diabetics after 3 months of Troglitazone treatment, pre-Trog mean 1422", "value": 722}, {"measurement": "Fold Change, Diabetic Post-Trog vs Pre-Trog (MAST205)", "setting": "[2]; [6]", "value": 0.74}, {"measurement": "Mean Expr, Diabetic Post-Trog (MAST205)", "setting": "[2]; diabetics after 3 months troglitazone, pre-Trog mean 1234", "value": 919}, {"measurement": "Relative Exp (%), Diabetic Post-Tro (MAST205)", "setting": "MAST205 expression; muscle, diabetics after 3 months troglitazone, relative to Lean Pre-Trog = 100%, Diabetic Pre-Trog 242", "value": 66, "unit": "%"}, {"measurement": "Relative Exp (%), Lean Post-Trog (MAST205)", "setting": "MAST205 expression; [4]", "value": 98, "unit": "%"}, {"measurement": "Fold Change (D+/D−) (MAST205)", "setting": "MAST205 expression; [5]", "value": 0.27}, {"measurement": "Expression Fold change, Diabetics + Tro/Diabetics − Tro (PCI)", "setting": "[3]", "value": 0.33}]}]}
